Assay results: patent publication US8394829B2, “Bi-functional quinoline analogs” (Gilead Sciences, Inc., priority 2010, dated 2013)

Legend:
[1] = tested on: LPS-induced TNF-α release from human peripheral blood mononuclear cells (PBMC); experiment: Inhibition of LPS-induced TNF-α release from human PBMC; assay type: cell-based; conditions: LPS 0.4 ng/mL, 6 h, presence or absence of ICI-118551 not given
Source text: Inhibition of Lipopolysaccharide (LPS)-Induced Tumour Necrosis Factor Alpha (TNF-α) Release from Human Peripheral Blood Mononuclear Cells (PBMC)
Human whole blood was drawn from donors and cell purification initiated within two hours. Peripheral blood mononuclear cells (PBMC) were purified using a standard Ficoll gradient purification technique and aliquoted at a concentration of 100,000 cells/well in 96 well plates. Beta-2 adrenoreceptor agonists are also anti-inflammatory for some immune cells expressing the receptor and in this assay they can inhibit tumor necrosis factor-alpha (TNF-α) production. Therefore PBMC were pre-incubated for 30 min in the presence of the beta-2 adrenoreceptor antagonist ICI-118551 [3-(isopropylamino)-1-[(7-methyl-4-indanyl)oxy]butan-2-ol] (10 μM) to determine the PDE4 directed activity of test compounds, and in the absence of ICI-118551 for the combined PDE4 and beta-2 receptor directed activity. Test compounds were dissolved in DMSO and diluted in buffer (final DMSO concentration of 0.1% v/v) and were then added to the cell suspensions and pre-incubated for a further 1 h at 37° C. LPS solution was then added (0.4 ng/mL) and the cells incubated for a further 6 h. At the end of the incubation period the cell supernatants were collected and TNF-α was measured using a Procarta Cytokine Assay Kit (Affymetrix, Santa Clara, Calif.) according to the manufacturers' instructions. Data were analyzed using MiraiBio Masterplex QT v4.0 software (MasterPlex Version 1.0.1.18 Copyright 2008, Hitachi Software Engineering Co., Ltd) and used to extrapolate Mean Fluorescence Intensity (MFI) into concentrations of TNF-α and mean values from replicate wells were determined. Inhibition curves were plotted using a nonlinear curve fit employing a single-site binding model to determine the IC50 value for each test compound in the presence or absence of ICI-118551 using GraphPad Prism 5 for Windows, version 5.02 (GraphPad Software, San Diego Calif.).
EC50 determinations for the compounds presented above are seen in the fourth column of Table 1 (PBMC TNF EC50).

[2] = target: T1, human recombinant beta-2 adrenoreceptors (Homo sapiens, UniProt P07550); experiment: Beta-2 adrenoceptor binding assay ([3H](−)CGP-12177 displacement); conditions: CHO cells expressing human beta-2 adrenoreceptors, [3H](−)CGP-12177 0.3 nM, 120 min
T1 construct: expressed in transfected cells; host or cells: CHO cells
Method: Beta-2 Adrenoceptor Binding Assay
Test compounds were incubated for 120 min with Chinese hamster oocyte (CHO) cells expressing the human recombinant beta-2 adrenoreceptors. Binding of test compounds to the beta-2 adrenoreceptors was determined by measuring the displacement of the radiolabeled ligand [^3H](−)CGP-12177 (0.3 nM) from the receptor measured by a scintillation counting. Concentration response curves were generated for test compounds and the IC50 (molar concentration of the compound which produced 50% inhibition for the maximal response for that compound) was determined. These assays were performed using a protocol based on the original description of the assay by Joseph et al., (2004) Naun.-Sch. Arch. Pharm.; 369:525-532.
IC50 determinations for the compounds presented above are seen in the second column of Table 1 (Beta 2 IC50).

[3] = target: T2, Human recombinant PDE4B2 (Homo sapiens, UniProt Q07343); experiment: Inhibition of PDE4B4 enzyme activity (PDE Glo Assay); assay type: biochemical; conditions: human recombinant PDE4B2, 50 nM cAMP; read-out: PDE4 IC50
T2 construct: purchased BPS Bioscience
Method: Biological Examples Inhibition of PDE4B4 Enzyme Activity
The inhibitory activity of test compounds were determined using the PDE Glo Assay (Promega, V1361). The PDE-Glo Reaction Buffer was prepared (1 mL 5× buffer+4 mL water) and 150 nM solution of test compound dissolved in the Reaction Buffer, followed by 1:3 serial dilutions into Reaction Buffer. […] Human recombinant PDE4B2 (BPS Bioscience) was added to test compound in Reaction Buffer at a concentration of 0.12 nM per reaction. The enzyme and test compound were pre-incubated together at rt for 10 min. 50 nM of the enzyme substrate cAMP was then added to initiate the enzyme reaction, with the reaction terminated after one hour. Termination Buffer (1 mL 5× termination buffer+3.9 mL water+100 μL of 100 mM IBMX (ICN Chemicals, in DMSO)), was added to each reaction well to terminate the reaction. Detection Buffer (1 mL 5×PDE-Glo Detection buffer+3.96 mL water+40 μL PKA (supplied in kit)) was added to the cAMP-enzyme-test compound mix and this secondary reaction proceeded for 20 minutes at rt. An equal volume of Kinase Glo Reagent was then added to the reaction mixture and after 10 min luminescence was measured using a luminometer (EnVision, 0.1 sec read for luminescence). Luminescence values were […] related to levels of cAMP in the reaction mixture. Data were plotted as relative light units (RLU) versus test compound concentration and the IC50 determined using GraphPad Prism 5.0, using a nonlinear curve fit in a single-site binding model.
IC50 determinations for the compounds presented above are seen in the first column of Table 1 (PDE4IC50).

[4] = target: T1, human recombinant beta-2 adrenoreceptors; experiment: Functional agonism of human recombinant beta-2 adrenoreceptors expressed in CHO cells (cAMP HTRF); assay type: cell-based; conditions: CHO cells expressing human beta-2 adrenoreceptors, cAMP elevation, 30 min
Method: Functional Agonism of Human Recombinant Beta-2 Adrenoreceptors Expressed in Chinese Hamster Oocytes (CHO)
Test compounds were incubated for 30 min with CHO cells expressing the human recombinant beta-2 adrenoreceptors. Agonism of the receptor was measured by the elevation of intracellular cyclic-AMP over control levels detected using a homogeneous time resolved fluorescence (HTRF) format. Compounds were determined to be “full” or “partial” agonists based on the maximum level of cAMP accumulated compared to the control compound isoproterenol which is a full agonist in this assay system. Concentration response curves were generated for test compounds and the EC50 (molar concentration of the agonist which produced 50% of the maximal response for that compound) was determined. These assays were performed using a protocol based on the original description of the assay by Baker, J. G. (2005) Brit. J. Pharmacol.; 144:317-322.
EC50 determinations for the compounds presented above are seen in the third column of Table 1 (Beta 2 EC50).

T1 sequence (P07550 whole entry): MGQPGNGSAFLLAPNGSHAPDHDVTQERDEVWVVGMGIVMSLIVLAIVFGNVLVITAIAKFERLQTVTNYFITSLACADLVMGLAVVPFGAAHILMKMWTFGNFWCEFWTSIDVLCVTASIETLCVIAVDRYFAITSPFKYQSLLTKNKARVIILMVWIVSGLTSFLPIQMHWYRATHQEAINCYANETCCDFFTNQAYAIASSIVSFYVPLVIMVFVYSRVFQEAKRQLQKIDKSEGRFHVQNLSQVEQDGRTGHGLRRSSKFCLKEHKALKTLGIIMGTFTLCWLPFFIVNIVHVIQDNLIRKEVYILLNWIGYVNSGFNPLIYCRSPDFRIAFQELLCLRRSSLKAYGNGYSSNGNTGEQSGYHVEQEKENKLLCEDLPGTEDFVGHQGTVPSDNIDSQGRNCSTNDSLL
T2 sequence (Q07343 1-564 isoform Q07343-2): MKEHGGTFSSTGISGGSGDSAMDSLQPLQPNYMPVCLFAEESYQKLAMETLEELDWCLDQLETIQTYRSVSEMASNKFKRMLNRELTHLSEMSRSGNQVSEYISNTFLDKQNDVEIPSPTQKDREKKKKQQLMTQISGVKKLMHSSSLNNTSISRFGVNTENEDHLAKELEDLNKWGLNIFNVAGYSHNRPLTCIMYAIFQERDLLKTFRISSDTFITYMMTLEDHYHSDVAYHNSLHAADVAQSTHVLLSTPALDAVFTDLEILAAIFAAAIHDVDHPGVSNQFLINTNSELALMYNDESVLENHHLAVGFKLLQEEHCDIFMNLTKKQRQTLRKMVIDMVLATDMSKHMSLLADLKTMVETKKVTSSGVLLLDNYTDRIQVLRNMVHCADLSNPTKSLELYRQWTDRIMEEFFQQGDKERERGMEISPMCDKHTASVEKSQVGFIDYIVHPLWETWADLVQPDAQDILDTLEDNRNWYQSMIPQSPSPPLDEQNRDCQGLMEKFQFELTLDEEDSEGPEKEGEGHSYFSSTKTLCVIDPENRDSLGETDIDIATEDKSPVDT

## COc1cccc(Nc2c(C(N)=O)cnc3c(C)cc(S(=O)(=O)c4cccc(C(=O)NCCCCCCNC[C@H](O)c5ccc(O)c6[nH]c(=O)ccc56)c4)cc23)c1 [Example 2, (R)-6-[[3-[[6-[[2-Hydroxy-2-(8-hydroxy-2-oxo-1,2-dihydroquinolin-5-yl)ethyl]amino]hexyl]carbamoyl]phenyl]sulfonyl]-4-((3-methoxyphenyl)amino]-8-methylquinoline-3-carboxamide]
[1]
  EC50: < 0.1 µM
[2]
  IC50: < 0.1 µM
[3]
  IC50: < 0.1 µM
[4]
  EC50: < 0.1 µM

## COc1cccc(Nc2c(C(N)=O)cnc3c(C)cc(S(=O)(=O)c4cccc(C(=O)N5CCC(NC[C@H](O)c6ccc(O)c7[nH]c(=O)ccc67)CC5)c4)cc23)c1 [Example 3, (R)-6-[[3-[[4-[[2-Hydroxy-2-(8-hydroxy-2-oxo-1,2-dihydroquinolin-5-yl)ethyl]amino]piperidine-1-yl]carbonyl)phenyl]sulfonyl]-4-[(3-methoxyphenyl)amino]-8-methylquinoline-3-carboxamide]
[1]
  EC50: < 0.1 µM
[2]
  IC50: > 0.3 µM
[3]
  IC50: < 0.1 µM
[4]
  EC50: < 0.1 µM

## COc1cccc(Nc2c(C(N)=O)cnc3c(C)cc(S(=O)(=O)c4cccc(C(=O)Nc5ccc(C#CCCCCNC[C@H](O)c6ccc(O)c7[nH]c(=O)ccc67)cc5)c4)cc23)c1 [Example 7, (R)-6-((3-((4-(6-((2-hydroxy-2-(8-hydroxy-2-oxo-1,2-dihydroquinolin-5-yl)ethyl)amino)hex-1-yn-1-yl)phenyl)carbamoyl)phenyl)sulfonyl)-4-((3-methoxyphenyl)amino)-8-methylquinoline-3-carboxamide]
[1]
  EC50: < 0.1 µM
[2]
  IC50: < 0.1 µM
[3]
  IC50: < 0.1 µM
[4]
  EC50: < 0.1 µM

## COc1cccc(Nc2c(C(N)=O)cnc3c(C)cc(S(=O)(=O)c4cccc(C(=O)Nc5ccc(C#CCCCN(C)C[C@H](O)c6ccc(O)c7[nH]c(=O)ccc67)cc5)c4)cc23)c1 [Example 8, (R)-6-((3-((4-(5-((2-hydroxy-2-(8-hydroxy-2-oxo-1,2-dihydroquinolin-5-yl)ethyl)(methyl)amino)pent-1-yn-1-yl)phenyl)carbamoyl)phenyl)sulfonyl)-4-((3-methoxyphenyl)amino)-8-methylquinoline-3-carboxamide]
[1]
  EC50: < 0.1 µM
[2]
  IC50: > 0.3 µM
[3]
  IC50: < 0.1 µM
[4]
  EC50: > 0.3 µM

## COc1cccc(Nc2c(C(N)=O)cnc3c(C)cc(S(=O)(=O)c4cccc(C(=O)Nc5cccc(C#CCCCNC[C@H](O)c6ccc(O)c7[nH]c(=O)ccc67)c5)c4)cc23)c1 [Example 9, (R)-6-((3-((3-(5-((2-hydroxy-2-(8-hydroxy-2-oxo-1,2-dihydroquinolin-5-yl)ethyl)amino)pent-1-yn-1-yl)phenyl)carbamoyl)phenyl)sulfonyl)-4-((3-methoxyphenyl)amino)-8-methylquinoline-3-carboxamide]
[1]
  EC50: < 0.1 µM
[2]
  IC50: < 0.1 µM
[3]
  IC50: < 0.1 µM
[4]
  EC50: < 0.1 µM

## COc1cccc(Nc2c(C(N)=O)cnc3c(C)cc(S(=O)(=O)c4cccc(C(=O)Nc5ccc(CCCCCNC[C@H](O)c6ccc(O)c7[nH]c(=O)ccc67)cc5)c4)cc23)c1 [Example 10, (R)-6-[[3-[[4-[5-[[2-Hydroxy-2-(8-hydroxy-2-oxo-1,2-dihydroquinolin-5-yl)ethyl]amino]pentyl]phenyl]carbamoyl]phenyl]sulfonyl]-4-[(3-methoxyphenyl)amino]-8-methylquinoline-3-carboxamide 2,2,2-trifluoroacetate]
[1]
  EC50: < 0.1 µM
[2]
  IC50: < 0.1 µM
[3]
  IC50: < 0.1 µM
[4]
  EC50: < 0.1 µM

## COc1cccc(Nc2c(C(N)=O)cnc3c(C)cc(S(=O)(=O)c4cccc(C(=O)N5CCN(CCNC[C@H](O)c6ccc(O)c7[nH]c(=O)ccc67)CC5)c4)cc23)c1 [Example 11, 6-[3-[[4-[2-[[2-Hydroxy-2-(8-hydroxy-2-oxo-1,2-dihydroquinolin-5-yl)ethyl]amino]ethyl]piperazine-1-yl]carbonyl]benzenesulfonyl]-4-(3-methoxyphenylamino)-8-methylquinoline-3-carboxyamide]
[1]
  EC50: < 0.1 µM
[2]
  IC50: < 0.1 µM
[3]
  IC50: < 0.1 µM
[4]
  EC50: < 0.1 µM

## COc1cccc(Nc2c(C(N)=O)cnc3c(C)cc(S(=O)(=O)c4cccc(C(=O)Nc5ccc(CCNC[C@H](O)c6ccc(O)c7[nH]c(=O)ccc67)cc5)c4)cc23)c1 [Example 12, (R)-6-[[3-[[4-[2-[[2-Hydroxy-2-(8-hydroxy-2-oxo-1,2-dihydroquinolin-5-yl)ethyl]amino]ethyl]phenyl]carbamoyl]phenyl]sulfonyl]-4-[(3-methoxyphenyl)amino]-8-methylquinoline-3-carboxamide]
[1]
  EC50: < 0.1 µM
[2]
  IC50: < 0.1 µM
[3]
  IC50: < 0.1 µM
[4]
  EC50: < 0.1 µM

## COc1cccc(Nc2c(C(N)=O)cnc3c(C)cc(S(=O)(=O)c4cccc(CN(C)C(=O)c5cccc(CC(C)NC[C@H](O)c6ccc(O)c7[nH]c(=O)ccc67)c5)c4)cc23)c1 (stereo partly drawn) [Example 13, 6-[[3-[[3-[2-[[(R)-2-Hydroxy-2-(8-hydroxy-2-oxo-1,2-dihydroquinolin-5-yl)ethyl]amino]propyl]-N-methylbenzamido]methyl]phenyl]sulfonyl]-4-[(3-methoxyphenyl)amino]-8-methylquinoline-3-carboxamide]
[1]
  EC50: < 0.1 µM
[2]
  IC50: < 0.1 µM
[3]
  IC50: < 0.1 µM
[4]
  EC50: < 0.1 µM

## COc1cccc(Nc2c(C(N)=O)cnc3c(C)cc(S(=O)(=O)c4cccc(C(=O)N(C)CCCCCCNC[C@H](O)c5ccc(O)c6[nH]c(=O)ccc56)c4)cc23)c1 [Example 14]
[1]
  EC50: < 0.1 µM
[2]
  IC50: > 0.3 µM
[3]
  IC50: < 0.1 µM
[4]
  EC50: > 0.3 µM

## COc1cccc(Nc2c(C(N)=O)cnc3c(C)cc(S(=O)(=O)c4cccc(C(=O)N5CCC(OCCCCCCNC[C@H](O)c6ccc(O)c7[nH]c(=O)ccc67)CC5)c4)cc23)c1 [Example 15, (R)-6-((3-(4-((6-((2-hydroxy-2-(8-hydroxy-2-oxo-1,2-dihydroquinolin-5-yl)ethyl)amino)hexyl)oxy)piperidine-1-carbonyl)phenyl)sulfonyl)-4-((3-methoxyphenyl)amino)-8-methylquinoline-3-carboxamide]
[1]
  EC50: < 0.1 µM
[2]
  IC50: < 0.1 µM
[3]
  IC50: < 0.1 µM
[4]
  EC50: < 0.1 µM
